Experimental data from PubChem BioAssay (NCI).
Several values for one entry are separate records, joined by “and”; a condition that tells them apart may be missing. Equal values may be shown once.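 Cells were grown in 96-well plates and exposed to each compound for 48 hours at five concentrations; endpoints were interpolated linearly between bracketing concentrations, or set to the highest concentration if not reached. TGI: concentration producing complete growth inhibition.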

Experiments:
Experiment in all cases: inhibition of tumour cell growth, NCI panel, 48 h
DLD-1 colon = test system: DLD-1 colon
NCI-H522 lung = test system: NCI-H522 lung
MOLT-4 leukemia = test system: MOLT-4 leukemia
HCC-2998 colon = test system: HCC-2998 colon
DMS 114 small cell lung = test system: DMS 114 small cell lung
786-0 renal = test system: 786-0 renal
NCI-H23 lung = test system: NCI-H23 lung
DMS 273 small cell lung = test system: DMS 273 small cell lung
U251 CNS = test system: U251 CNS
ACHN renal = test system: ACHN renal
NCI-H460 lung = test system: NCI-H460 lung
IGROV1 ovarian = test system: IGROV1 ovarian
SNB-78 CNS = test system: SNB-78 CNS
SR leukemia = test system: SR leukemia
SN12C renal = test system: SN12C renal
HT29 colon = test system: HT29 colon
NCI-H226 lung = test system: NCI-H226 lung
HCT-116 colon = test system: HCT-116 colon
HL-60(TB) leukemia = test system: HL-60(TB) leukemia
SF-268 CNS = test system: SF-268 CNS
UO-31 renal = test system: UO-31 renal
LXFL 529 NSCLC = test system: LXFL 529 NSCLC
KM12 colon = test system: KM12 colon
MALME-3M melanoma = test system: MALME-3M melanoma
HOP-18 NSCLC = test system: HOP-18 NSCLC
XF 498 CNS = test system: XF 498 CNS
OVCAR-4 ovarian = test system: OVCAR-4 ovarian
RPMI-8226 leukemia = test system: RPMI-8226 leukemia
TK-10 renal = test system: TK-10 renal
HCT-15 colon = test system: HCT-15 colon
SK-MEL-5 melanoma = test system: SK-MEL-5 melanoma
UACC-257 melanoma = test system: UACC-257 melanoma
CAKI-1 renal = test system: CAKI-1 renal
SK-MEL-28 melanoma = test system: SK-MEL-28 melanoma
RXF-631 renal = test system: RXF-631 renal
OVCAR-8 ovarian = test system: OVCAR-8 ovarian
UACC-62 melanoma = test system: UACC-62 melanoma
SF-539 CNS = test system: SF-539 CNS
HOP-92 NSCLC = test system: HOP-92 NSCLC
EKVX NSCLC = test system: EKVX NSCLC
SW-620 colon = test system: SW-620 colon
SNB-19 CNS = test system: SNB-19 CNS
SK-OV-3 ovarian = test system: SK-OV-3 ovarian
OVCAR-5 ovarian = test system: OVCAR-5 ovarian
A498 renal = test system: A498 renal
KM20L2 colon = test system: KM20L2 colon
OVCAR-3 ovarian = test system: OVCAR-3 ovarian
COLO 205 colon = test system: COLO 205 colon
M19-MEL melanoma = test system: M19-MEL melanoma
RXF 393 renal = test system: RXF 393 renal
M14 melanoma = test system: M14 melanoma
LOX IMVI melanoma = test system: LOX IMVI melanoma
HOP-62 NSCLC = test system: HOP-62 NSCLC
SNB-75 CNS = test system: SNB-75 CNS
K-562 leukemia = test system: K-562 leukemia
SF-295 CNS = test system: SF-295 CNS
A549 NSCLC = test system: A549 NSCLC
CCRF-CEM leukemia = test system: CCRF-CEM leukemia
SK-MEL-2 melanoma = test system: SK-MEL-2 melanoma

With `O=S(=O)(O)SC/C=C\CSS(=O)(=O)O` the TGI (DLD-1 colon) was over 100 µM, the TGI (NCI-H522 lung) was over 100 µM and the TGI (MOLT-4 leukemia) was over 100 µM. For the same molecule, the TGI (HCC-2998 colon) was over 100 µM, the TGI (DMS 114 small cell lung) was over 100 µM and the TGI (786-0 renal) was over 100 µM. It also gave a TGI (NCI-H23 lung) of over 100 µM, a TGI (DMS 273 small cell lung) of over 100 µM and a TGI (U251 CNS) of over 100 µM. The TGI (ACHN renal) was over 100 µM, the TGI (NCI-H460 lung) was over 100 µM and the TGI (IGROV1 ovarian) was over 100 µM. It also gave a TGI (SNB-78 CNS) of over 100 µM, a TGI (SR leukemia) of over 100 µM and a TGI (SN12C renal) of over 100 µM. For the same molecule, the TGI (HT29 colon) was over 100 µM, the TGI (NCI-H226 lung) was over 100 µM and the TGI (HCT-116 colon) was over 100 µM. For the same molecule, the TGI (HL-60(TB) leukemia) was over 100 µM, the TGI (SF-268 CNS) was over 100 µM and the TGI (UO-31 renal) was over 100 µM. For the same molecule, the TGI (LXFL 529 NSCLC) was over 100 µM, the TGI (KM12 colon) was > 100 µM and 61.2 µM and the TGI (MALME-3M melanoma) was over 100 µM. It also gave a TGI (HOP-18 NSCLC) of over 100 µM, a TGI (XF 498 CNS) of over 100 µM and a TGI (OVCAR-4 ovarian) of over 100 µM. For the same molecule, the TGI (RPMI-8226 leukemia) was over 100 µM, the TGI (TK-10 renal) was over 100 µM and the TGI (HCT-15 colon) was over 100 µM. For the same molecule, the TGI (SK-MEL-5 melanoma) was over 100 µM, the TGI (UACC-257 melanoma) was over 100 µM and the TGI (CAKI-1 renal) was over 100 µM. For the same molecule, the TGI (SK-MEL-28 melanoma) was over 100 µM, the TGI (RXF-631 renal) was over 100 µM and the TGI (OVCAR-8 ovarian) was over 100 µM. It also gave a TGI (UACC-62 melanoma) of over 100 µM, a TGI (SF-539 CNS) of over 100 µM and a TGI (HOP-92 NSCLC) of over 100 µM. It also gave a TGI (EKVX NSCLC) of over 100 µM, a TGI (SW-620 colon) of over 100 µM and a TGI (SNB-19 CNS) of over 100 µM. For the same molecule, the TGI (SK-OV-3 ovarian) was over 100 µM, the TGI (OVCAR-5 ovarian) was over 100 µM and the TGI (A498 renal) was over 100 µM. The TGI (KM20L2 colon) was over 100 µM, the TGI (OVCAR-3 ovarian) was over 100 µM and the TGI (COLO 205 colon) was over 100 µM. The TGI (M19-MEL melanoma) was over 100 µM, the TGI (RXF 393 renal) was over 100 µM and the TGI (M14 melanoma) was over 100 µM. For the same molecule, the TGI (LOX IMVI melanoma) was over 100 µM, the TGI (HOP-62 NSCLC) was over 100 µM and the TGI (SNB-75 CNS) was over 100 µM. For the same molecule, the TGI (K-562 leukemia) was over 100 µM, the TGI (SF-295 CNS) was over 100 µM and the TGI (A549 NSCLC) was over 100 µM.

`O=C(CC1C(=O)Nc2ccccc2S1=O)Nc1ccccc1` (stereo unspecified) was tested, and the TGI (DLD-1 colon) was over 100 µM, the TGI (NCI-H522 lung) was over 100 µM and the TGI (MOLT-4 leukemia) was over 100 µM. The TGI (HCC-2998 colon) was over 100 µM, the TGI (DMS 114 small cell lung) was over 100 µM and the TGI (786-0 renal) was over 100 µM. It also gave a TGI (CCRF-CEM leukemia) of over 100 µM, a TGI (NCI-H23 lung) of over 100 µM and a TGI (DMS 273 small cell lung) of over 100 µM. It also gave a TGI (U251 CNS) of over 100 µM, a TGI (ACHN renal) of over 100 µM and a TGI (NCI-H460 lung) of over 100 µM. It also gave a TGI (IGROV1 ovarian) of over 100 µM, a TGI (SNB-78 CNS) of over 100 µM and a TGI (SR leukemia) of over 100 µM. For the same molecule, the TGI (SN12C renal) was over 100 µM, the TGI (HT29 colon) was over 100 µM and the TGI (NCI-H226 lung) was over 100 µM. The TGI (HCT-116 colon) was over 100 µM, the TGI (HL-60(TB) leukemia) was over 100 µM and the TGI (SF-268 CNS) was over 100 µM. For the same molecule, the TGI (UO-31 renal) was over 100 µM, the TGI (LXFL 529 NSCLC) was over 100 µM and the TGI (SK-MEL-2 melanoma) was over 100 µM. It also gave a TGI (KM12 colon) of over 100 µM, a TGI (MALME-3M melanoma) of over 100 µM and a TGI (HOP-18 NSCLC) of over 100 µM. It also gave a TGI (XF 498 CNS) of over 100 µM, a TGI (OVCAR-4 ovarian) of over 100 µM and a TGI (TK-10 renal) of over 100 µM. The TGI (HCT-15 colon) was over 100 µM, the TGI (SK-MEL-5 melanoma) was over 100 µM and the TGI (UACC-257 melanoma) was over 100 µM. It also gave a TGI (CAKI-1 renal) of over 100 µM, a TGI (SK-MEL-28 melanoma) of over 100 µM and a TGI (RXF-631 renal) of over 100 µM. It also gave a TGI (OVCAR-8 ovarian) of over 100 µM, a TGI (UACC-62 melanoma) of over 100 µM and a TGI (SF-539 CNS) of over 100 µM. For the same molecule, the TGI (HOP-92 NSCLC) was over 100 µM, the TGI (EKVX NSCLC) was over 100 µM and the TGI (SW-620 colon) was over 100 µM. The TGI (SNB-19 CNS) was over 100 µM, the TGI (SK-OV-3 ovarian) was 62.6 µM and the TGI (OVCAR-5 ovarian) was over 100 µM. For the same molecule, the TGI (A498 renal) was over 100 µM, the TGI (KM20L2 colon) was over 100 µM and the TGI (OVCAR-3 ovarian) was over 100 µM. It also gave a TGI (COLO 205 colon) of over 100 µM, a TGI (M19-MEL melanoma) of over 100 µM and a TGI (RXF 393 renal) of 45 µM. The TGI (M14 melanoma) was over 100 µM, the TGI (HOP-62 NSCLC) was over 100 µM and the TGI (SNB-75 CNS) was over 100 µM. It also gave a TGI (SF-295 CNS) of over 100 µM and a TGI (A549 NSCLC) of over 100 µM.

Molecule `CCOC(=O)C1=C(NC(C)(C)C)OC/C1=N\NC(=O)Cc1ccccc1` has a TGI (DLD-1 colon) of over 100 µM, a TGI (NCI-H522 lung) of over 100 µM and a TGI (MOLT-4 leukemia) of over 100 µM. It also gave a TGI (HCC-2998 colon) of over 100 µM, a TGI (DMS 114 small cell lung) of over 100 µM and a TGI (786-0 renal) of over 100 µM. For the same molecule, the TGI (CCRF-CEM leukemia) was over 100 µM, the TGI (NCI-H23 lung) was over 100 µM and the TGI (DMS 273 small cell lung) was over 100 µM. It also gave a TGI (U251 CNS) of over 100 µM, a TGI (ACHN renal) of over 100 µM and a TGI (NCI-H460 lung) of over 100 µM. For the same molecule, the TGI (IGROV1 ovarian) was over 100 µM, the TGI (SNB-78 CNS) was over 100 µM and the TGI (SR leukemia) was over 100 µM. It also gave a TGI (SN12C renal) of over 100 µM, a TGI (HT29 colon) of over 100 µM and a TGI (NCI-H226 lung) of over 100 µM. For the same molecule, the TGI (HCT-116 colon) was over 100 µM, the TGI (HL-60(TB) leukemia) was over 100 µM and the TGI (SF-268 CNS) was over 100 µM. It also gave a TGI (UO-31 renal) of over 100 µM, a TGI (LXFL 529 NSCLC) of over 100 µM and a TGI (SK-MEL-2 melanoma) of over 100 µM. The TGI (KM12 colon) was over 100 µM, the TGI (MALME-3M melanoma) was over 100 µM and the TGI (HOP-18 NSCLC) was over 100 µM. For the same molecule, the TGI (XF 498 CNS) was over 100 µM, the TGI (OVCAR-4 ovarian) was over 100 µM and the TGI (TK-10 renal) was over 100 µM. For the same molecule, the TGI (HCT-15 colon) was over 100 µM, the TGI (SK-MEL-5 melanoma) was over 100 µM and the TGI (UACC-257 melanoma) was over 100 µM. It also gave a TGI (CAKI-1 renal) of over 100 µM, a TGI (SK-MEL-28 melanoma) of over 100 µM and a TGI (RXF-631 renal) of over 100 µM. For the same molecule, the TGI (OVCAR-8 ovarian) was over 100 µM, the TGI (UACC-62 melanoma) was over 100 µM and the TGI (SF-539 CNS) was over 100 µM. It also gave a TGI (HOP-92 NSCLC) of over 100 µM, a TGI (EKVX NSCLC) of over 100 µM and a TGI (SW-620 colon) of over 100 µM. For the same molecule, the TGI (SNB-19 CNS) was over 100 µM, the TGI (SK-OV-3 ovarian) was over 100 µM and the TGI (OVCAR-5 ovarian) was over 100 µM. For the same molecule, the TGI (A498 renal) was over 100 µM, the TGI (KM20L2 colon) was over 100 µM and the TGI (OVCAR-3 ovarian) was over 100 µM. For the same molecule, the TGI (COLO 205 colon) was over 100 µM, the TGI (M19-MEL melanoma) was over 100 µM and the TGI (RXF 393 renal) was over 100 µM. It also gave a TGI (M14 melanoma) of over 100 µM, a TGI (LOX IMVI melanoma) of over 100 µM and a TGI (HOP-62 NSCLC) of over 100 µM. The TGI (SNB-75 CNS) was over 100 µM, the TGI (K-562 leukemia) was over 100 µM and the TGI (SF-295 CNS) was over 100 µM. The TGI (A549 NSCLC) was over 100 µM.
